According to PubChem BioAssay (NCI):
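Where inhibition never reached the appropriate level, the endpoint shown equals the highest concentration tested. Otherwise, values were interpolated linearly from a five-concentration, 48-hour dose response in 96-well plates. TGI marks complete inhibition of growth.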

Tests used:
Experiment in all cases: inhibition of tumour cell growth, NCI panel, 48 h
[1] = tested on: SK-MEL-28 melanoma
[2] = tested on: UACC-257 melanoma
[3] = tested on: SNB-19 CNS
[4] = tested on: U251 CNS
[5] = tested on: COLO 205 colon
[6] = tested on: PC-3 prostate
[7] = tested on: SF-539 CNS
[8] = tested on: SK-MEL-2 melanoma
[9] = tested on: A498 renal
[10] = tested on: TK-10 renal
[11] = tested on: RPMI-8226 leukemia
[12] = tested on: HOP-62 NSCLC
[13] = tested on: CCRF-CEM leukemia
[14] = tested on: MCF7 breast
[15] = tested on: HS 578T breast
[16] = tested on: CAKI-1 renal
[17] = tested on: HOP-92 NSCLC
[18] = tested on: RXF 393 renal
[19] = tested on: 786-0 renal
[20] = tested on: ACHN renal
[21] = tested on: LOX IMVI melanoma
[22] = tested on: NCI-H226 lung
[23] = tested on: OVCAR-5 ovarian
[24] = tested on: UO-31 renal
[25] = tested on: MDA-N
[26] = tested on: K-562 leukemia
[27] = tested on: MALME-3M melanoma
[28] = tested on: SF-295 CNS
[29] = tested on: MDA-MB-435
[30] = tested on: SF-268 CNS
[31] = tested on: SR leukemia
[32] = tested on: HCT-116 colon
[33] = tested on: HT29 colon
[34] = tested on: KM12 colon
[35] = tested on: HCT-15 colon
[36] = tested on: M14 melanoma
[37] = tested on: A549 NSCLC
[38] = tested on: T-47D breast
[39] = tested on: SN12C renal
[40] = tested on: HCC-2998 colon
[41] = tested on: NCI-H522 lung
[42] = tested on: MDA-MB-231 breast
[43] = tested on: NCI-H23 lung
[44] = tested on: UACC-62 melanoma
[45] = tested on: NCI-H460 lung
[46] = tested on: EKVX NSCLC
[47] = tested on: MOLT-4 leukemia
[48] = tested on: NCI/ADR-RES ovarian
[49] = tested on: OVCAR-3 ovarian
[50] = tested on: OVCAR-4 ovarian
[51] = tested on: SK-MEL-5 melanoma
[52] = tested on: IGROV1 ovarian
[53] = tested on: OVCAR-8 ovarian
[54] = tested on: DU-145 prostate
[55] = tested on: SK-OV-3 ovarian
[56] = tested on: HL-60(TB) leukemia

CCOC(=O)C1=C(C)N(Cc2ccccc2)C2(O)C=CC(=O)C3C(=O)N(c4ccccc4)C(=O)C132 (stereo unspecified)
TGI [1]: 3.54 µM
TGI [2]: 7.59 µM
TGI [3]: 21.4 µM
TGI [4]: 11.8 µM
TGI [5]: 3.1 µM
TGI [6]: 6.88 µM
TGI [7]: 3.45 µM
TGI [8]: 3.98 µM
TGI [9]: 28.1 µM
TGI [10]: 9.33 µM
TGI [11]: 3.1 µM
TGI [12]: 5.52 µM
TGI [13]: 5.51 µM
TGI [14]: 12.7 µM
TGI [15]: 34 µM
TGI [16]: 4.17 µM
TGI [17]: 7.96 µM
TGI [18]: 2.94 µM
TGI [19]: 3.27 µM
TGI [20]: 3.25 µM
TGI [21]: 3.43 µM
TGI [22]: 5.7 µM
TGI [23]: 9.85 µM
TGI [24]: 3.81 µM
TGI [25]: 12.5 µM
TGI [26]: 27.3 µM
TGI [27]: 7.68 µM
TGI [28]: 13.7 µM
TGI [29]: 3.86 µM
TGI [30]: 7.81 µM
TGI [31]: 2.88 µM
TGI [32]: 2.49 µM
TGI [33]: 3.33 µM
TGI [34]: 4.59 µM
TGI [35]: 5.14 µM
TGI [36]: 3.92 µM
TGI [37]: 10.4 µM
TGI [38]: 9.27 µM
TGI [39]: 10.6 µM
TGI [40]: 3.2 µM
TGI [41]: 3.32 µM
TGI [42]: 12.1 µM
TGI [43]: 5.36 µM
TGI [44]: 4.01 µM
TGI [45]: 4.77 µM
TGI [46]: 22.5 µM
TGI [47]: 5.54 µM
TGI [48]: 10.6 µM
TGI [49]: 6.08 µM
TGI [50]: 6.45 µM
TGI [51]: 12.8 µM
TGI [52]: 4.32 µM
TGI [53]: 3.32 µM
TGI [54]: 7.63 µM
TGI [55]: 19.3 µM
TGI [56]: 4.98 µM
